Reference: patent publication US20260200831A1, “Plant Oil Ceramides, Synthesis Method and Use Thereof” (SHENZHEN DIKEMAN BIOTECHNOLOGY CO., LTD., priority 2022, published 2026)

Experiments:
[1] = Cell migration (scratch) assay, skin barrier repair; assay type: cell-based; details: sample 100 mg/L
Method: Principle: When cells grow to form a confluent monolayer, a scratch tool is used to create a cell-free blank area on the confluent monolayer cells, the cells in the blank area are removed by a mechanical force, and through a period of incubation, the migration of the cells to the cell-free area is observed, and the migration ability of the cells is reflected by measuring the migration distance of the cells.
• 1. Marking the culture plate. Use a marker pen and ruler to draw evenly spaced horizontal lines (approximately 0.5-1 cm apart) on the back of a 6-well plate, ensuring at least 5 lines cross each well. Avoid thick lines. • 2. Cell seeding. Seed approximately 5×10^5 cells per well (the number varies for varied cells, adjusting based on cell growth rate), and the principle of inoculation is to achieve 100% confluence overnight. • 3. Cell scratching. On the following day, use a pipette tip perpendicular to the cell layer to create scratches along the pre-marked lines on the back of the plate (It is best to use the same tip for all wells). • 4. Cell washing. After the scratching was completed, rinse the cells three times with sterile PBS to remove dislodged cells, leaving a clear visible scratch gap, and then replace with fresh serum-free medium. • 5. Cell culturing and observation. […]

[2] = DPPH free radical scavenging assay
Method: DPPH is 1,1-diphenyl-2-picrylhydrazyl and can be used in antioxidant experiments.
Samples at corresponding concentrations (50, 100, 200, 400, 800 mg/L) were mixed with […] DPPH and absolute ethanol at a 1:1 volume ratio, respectively. DPPH and absolute ethanol were mixed at a 1:1 volume ratio, reacted at room temperature in the dark for 30 min, and the absorbance was measured at 517 nm. The absorbance of the sample mixed with DPPH is denoted as A1, the absorbance of the sample mixed with absolute ethanol is denoted as A2, and the absorbance of DPPH mixed with absolute ethanol is denoted as A3. The DPPH scavenging rate of the sample is calculated as [1−(A1−A2)/A3]×100%.

## CCCCCCCC/C=C\CCCCCCCC(=O)N[C@@H](CO)[C@H](O)[C@H](O)CCCCCCCCCCCCCC [ceramide 3B, oleic acid ceramide]
[1]
  healing rate after 24 h: 59.32%
[2]; 50 mg/L
  DPPH free radical scavenging rate: 7.76%
[2]; 100 mg/L
  DPPH free radical scavenging rate: 12.82%
[2]; 200 mg/L
  DPPH free radical scavenging rate: 24.10%
[2]; 400 mg/L
  DPPH free radical scavenging rate: 29.60%
[2]; 800 mg/L
  DPPH free radical scavenging rate: 33.16%
